Measurements reported in the CheMixHub viscosity set.
± gives the uncertainty stated by the source.

Assay: xn = mol fraction of the nth substance listed

CCCN + COCCO
viscosity [mPa·s]
Details	293.15 K	298.15 K
101 kPa, x2 = 0.0294	–	0.387 ± 0.007
101 kPa, x2 = 0.0662	–	0.415 ± 0.007
101 kPa, x2 = 0.0845	–	0.431 ± 0.007
101 kPa, x2 = 0.1053	–	0.448 ± 0.007
101 kPa, x2 = 0.1391	–	0.482 ± 0.007
101 kPa, x2 = 0.1936	–	0.54 ± 0.007
101 kPa, x2 = 0.2423	–	0.6 ± 0.008
101 kPa, x2 = 0.2765	–	0.644 ± 0.008
101 kPa, x2 = 0.321	–	0.708 ± 0.008
101 kPa, x2 = 0.3635	–	0.775 ± 0.008
101 kPa, x2 = 0.3989	–	0.835 ± 0.008
101 kPa, x2 = 0.4418	–	0.909 ± 0.009
101 kPa, x2 = 0.4845	–	0.974 ± 0.009
101 kPa, x2 = 0.5165	–	1.031 ± 0.009
101 kPa, x2 = 0.5599	–	1.106 ± 0.009
101 kPa, x2 = 0.5942	–	1.166 ± 0.01
101 kPa, x2 = 0.6575	–	1.265 ± 0.01
101 kPa, x2 = 0.6877	–	1.309 ± 0.01
101 kPa, x2 = 0.7452	–	1.384 ± 0.011
101 kPa, x2 = 0.8042	–	1.442 ± 0.011
101 kPa, x2 = 0.8424	–	1.47 ± 0.011
101 kPa, x2 = 0.8852	–	1.495 ± 0.011
101 kPa, x2 = 0.9064	–	1.505 ± 0.011
101 kPa, x2 = 0.9584	–	1.522 ± 0.011
101 kPa, x2 = 0.9794	–	1.527 ± 0.011
101.3 kPa, x2 = 0.0502	0.396 ± 0.011	0.38 ± 0.011
101.3 kPa, x2 = 0.1009	0.435 ± 0.011	0.415 ± 0.011
101.3 kPa, x2 = 0.1501	0.479 ± 0.011	0.453 ± 0.011
101.3 kPa, x2 = 0.2002	0.533 ± 0.011	0.501 ± 0.011
101.3 kPa, x2 = 0.2504	0.599 ± 0.011	0.559 ± 0.011
101.3 kPa, x2 = 0.3	0.674 ± 0.011	0.627 ± 0.011
101.3 kPa, x2 = 0.3498	0.759 ± 0.012	0.703 ± 0.011
101.3 kPa, x2 = 0.3997	0.852 ± 0.012	0.785 ± 0.012
101.3 kPa, x2 = 0.4499	0.95 ± 0.012	0.87 ± 0.012
101.3 kPa, x2 = 0.4998	1.05 ± 0.013	0.955 ± 0.012
101.3 kPa, x2 = 0.5504	1.149 ± 0.013	1.039 ± 0.013
101.3 kPa, x2 = 0.6	1.241 ± 0.014	1.116 ± 0.013
101.3 kPa, x2 = 0.6498	1.325 ± 0.014	1.186 ± 0.013
101.3 kPa, x2 = 0.6999	1.4 ± 0.014	1.249 ± 0.014
101.3 kPa, x2 = 0.7495	1.462 ± 0.015	1.304 ± 0.014
101.3 kPa, x2 = 0.8	1.515 ± 0.015	1.354 ± 0.014
101.3 kPa, x2 = 0.8511	1.561 ± 0.015	1.4 ± 0.014
101.3 kPa, x2 = 0.8999	1.601 ± 0.015	1.443 ± 0.015
101.3 kPa, x2 = 0.9499	1.647 ± 0.016	1.49 ± 0.015

CCCN + CCCCCCCO
viscosity [mPa·s], 101.33 kPa
Details	x1 = 0.0918	x1 = 0.1876	x1 = 0.2917	x1 = 0.3927	x1 = 0.4818	x1 = 0.6142	x1 = 0.7167	x1 = 0.7997	x1 = 0.9056
303.15 K	4.047 ± 0.025	3.35 ± 0.02	2.669 ± 0.016	2.114 ± 0.013	1.687 ± 0.01	1.177 ± 0.0074	0.8748 ± 0.0057	0.678 ± 0.0046	0.4813 ± 0.0037
313.15 K	3.046 ± 0.019	2.522 ± 0.016	2.023 ± 0.013	1.593 ± 0.01	1.28 ± 0.0081	0.9105 ± 0.0059	0.6933 ± 0.0047	0.5549 ± 0.0041	0.4105 ± 0.0034

CCCC1c2cc(c(O)c(/N=N/c3cccc(C(=O)O)c3)c2O)C(CCC)c2cc(c(O)c(/N=N/c3cccc(C(=O)O)c3)c2O)C(CCC)c2cc(c(O)c(/N=N/c3cccc(C(=O)O)c3)c2O)C(CCC)c2cc1c(O)c(/N=N/c1cccc(C(=O)O)c1)c2O (stereo unspecified) + CS(C)=O
viscosity [mPa·s], 101 kPa
Details	293.15 K	298.15 K	303.15 K	308.15 K	313.15 K
x1 = 0.000457	2.314 ± 0.02	2.072 ± 0.018	1.87 ± 0.017	1.698 ± 0.016	1.555 ± 0.015
x1 = 0.000544	2.345 ± 0.02	2.1 ± 0.018	1.893 ± 0.017	1.724 ± 0.016	1.579 ± 0.015
x1 = 0.000616	2.369 ± 0.02	2.124 ± 0.018	1.907 ± 0.017	1.737 ± 0.016	1.597 ± 0.015
x1 = 0.000708	2.391 ± 0.02	2.143 ± 0.019	1.931 ± 0.017	1.756 ± 0.016	1.607 ± 0.016
x1 = 0.0008532	2.425 ± 0.02	2.167 ± 0.019	1.952 ± 0.017	1.779 ± 0.016	1.625 ± 0.016
x1 = 0.001009	2.471 ± 0.021	2.209 ± 0.019	1.991 ± 0.018	1.812 ± 0.017	1.651 ± 0.016
x1 = 0.001122	2.52 ± 0.021	2.25 ± 0.019	2.024 ± 0.018	1.838 ± 0.017	1.68 ± 0.016
x1 = 0.001351	2.556 ± 0.021	2.284 ± 0.02	2.045 ± 0.018	1.858 ± 0.017	1.695 ± 0.016
x1 = 0.001491	2.633 ± 0.022	2.346 ± 0.02	2.104 ± 0.018	1.905 ± 0.017	1.739 ± 0.016
x1 = 0.001636	2.678 ± 0.022	2.38 ± 0.02	2.138 ± 0.019	1.934 ± 0.017	1.764 ± 0.016
x1 = 0.001789	2.724 ± 0.022	2.43 ± 0.021	2.176 ± 0.019	1.967 ± 0.018	1.79 ± 0.017
